Measured values as given in patent publication US20260248930A1, “PEPTIDE COMPOSITIONS TARGETING GLYPICAN-3 AND USES THEREOF” (PeptiDream Inc., priority 2023, published 2026).
Each block holds one molecule with its values, some of them ahead of it. *1 amine or outer side, *2 acyl side, *3 side chain or, on linkers, in order; H or OH if unused. Where a SMILES comes first, the peptide text is derived from it. Bridges are numbered along the chain shown (N, C = ends). [ ]: non-standard residue; d: D form. The star is where a group is joined. ξ: configuration not given here. MeDapCOpipzaa = 3-(4-(carboxymethyl)piperazine-1-carboxamido)-2-(methylamino)propanoic acid, CN([C@@H](CNC(=O)N1CCN(CC(=O)[*:3])CC1)C(=O)[*:2])[*:1]; F4aao = (S)-2-amino-3-(4-(carboxymethoxy)phenyl)propanoic acid, O=C([C@H](Cc1ccc(OCC(=O)[*:3])cc1)N[*:1])[*:2]; MeHseMe = 4-methoxy-2-(methylamino)butanoic acid, COCC[C@@H](C(=O)[*:2])N(C)[*:1]; Phe(4-(1-Me-pyrazol-4-yl)) = Cn1cc(-c2ccc(C[C@H](N)C(=O)O)cc2)cn1; Biotin‑PEG12c = biotin-PEG12c group on the lysine side chain; TMe = O-methyl threonine, CO[C@H](C)[C@H](N[*:1])C(=O)[*:2]; NMeAla(isoquinolin-7-yl) = CN[C@@H](Cc1ccc2ccncc2c1)C(=O)O; 3Pal(6-Ph) = N[C@@H](Cc1ccc(-c2ccccc2)nc1)C(=O)O; Biotin = O=C1N[C@H]2[C@H](CS[C@H]2CCCCC(=O)*)N1; PEG10 = NCCOCCOCCOCCOCCOCCOCCOCCOCCOCCOCCC(=O)O; Phe(4-COOH) = N[C@@H](Cc1ccc(C(=O)O)cc1)C(=O)O; NMe2Nal = CN[C@@H](Cc1ccc2ccccc2c1)C(=O)O; AEF = NCCOc1ccc(C[C@H](N)C(=O)O)cc1; NMeI = CC[C@H](C)[C@H](NC)C(=O)O; NMeQ = CN[C@@H](CCC(N)=O)C(=O)O; NMeK = CN[C@@H](CCCCN)C(=O)O; NMeC = CN[C@@H](CS)C(=O)O; ξNMeC = CNC(CS)C(=O)O

Columns and labels:
[1] = target: Human Glypican3-Fc (Homo sapiens, UniProt P51654); assay: SPR binding to human Glypican3-Fc captured on Protein A chip, Method B-3 (5 concentrations); conditions: SPR method B-3
Description: (§1) A Protein A sensor chip (Cytiva) was inserted into a Biacore T200 (Cytiva), priming was performed three times with a running buffer: HBS-P+, pH 7.4 (Cytiva), and equilibration was carried out at a flow rate of 30 μL/min. Glypican3-Fc was allowed to react for 60 seconds at a flow rate of 10 μL/min. After capturing human Glypican3-Fc, a peptide solution prepared to 10 mM in DMSO solution was diluted with a running buffer to a final concentration of 10 μM. […] Using the above samples, peptide kinetics for Glypican3 was obtained by SPR measurement. Kinetics evaluation of Glypican3 was performed by SPR measurements at a flow rate of 10 μL/min, setting the association time to 120 seconds and the disassociation time to 600 seconds.
(§2) The obtained data by Method B-1, Method B-2, Method B-3, and Method B-4 were analyzed by follow. Single Cycle Kinetics was used as the kinetics evaluation model, and curve fitting was performed using Biacore T200 Evaluation Software Version 3.0 (Cytiva).

[2] = system: HepG2 cells (glypican 3 expressed on the cell surface); assay: Flow cytometry, biotinylated peptides followed by SAPE, HepG2; type: cell-based, human; conditions: biotinylated peptide at 100 nM followed by SAPE (1:250), on ice; compared with SK-Hep1 negative control; FIG. 2
Description: (§3) Macrocyclic peptide-conjugates in this invention were tested in cells expressing glypican 3 and analyzed by flow cytometry.
(§4) HepG2 (human hepatocellular carcinoma) and SK-HEP-1 (human hepatic adenocarcinoma) cell lines were purchased from the American Type Culture Collection (ATCC; Manassas, VA). Huh-7 (human hepatoblastoma) cell line was purchased from the Japanese Collection of Research Bioresources Cell Bank (JCRB Cell Bank, Osaka, Japan). HepG2 and SK-HEP-1 were grown in EMEM (FUJIFILM Wako Pure Chemical Corporation, 055-08975) with 10% fetal bovine serum (FBS; Thermo Fisher Scientific, 10270106) and 0.1% gentamicin (NACALAI TESQUE, 11980-14). Huh-7 was grown in DMEM (Thermo Fisher Scientific, 10567014) with 10% FBS and 0.1% gentamicin.
(§5) HepG2, SK-HEP-1 and Huh-7 cells were collected from the culture dish and stained with biotinylated peptides at 100 nM followed by Streptavidin, R-Phycoerythrin Conjugate (SAPE; Thermo Fisher Scientific, S866) (1:250). Cells were washed with phosphate-buffered saline (PBS; FUJIFILM Wako Pure Chemical Corporation, 043-29791) containing 0.5% FBS after addition of peptides or SAPE. All staining procedures were performed on ice. Samples were measured using CytoFLEX S (Beckman Coulter) and CytExpert ver2.4 software. All data were analyzed using FlowJo™ (BD Bioscience). […]

[3] = system: Huh-7 cells (glypican 3 expressed on the cell surface); assay: Flow cytometry, biotinylated peptides followed by SAPE, Huh-7; type: cell-based, human; conditions: biotinylated peptide at 100 nM followed by SAPE (1:250), on ice; compared with SK-Hep1 negative control; FIG. 3
Description: as §3, §4, §5

[4] = target: T1, human Glypican3 (Homo sapiens, UniProt P51654); assay: SPR binding to immobilized human Glypican3, Method B-1 (CM3 chip, amine coupling); conditions: SPR method B-1
T1 construct: purchased R&D systems 2119-GP
Description: Macrocyclic peptides in this invention were tested for binding to Glypican-3 protein by SPR.
A CM3 sensor chip (Cytiva) was inserted into a Biacore T200 (Cytiva), primed three times with a running buffer: HBS-P+, pH 7.4 (Cytiva), and equilibrated at a flow rate of 30 μL/min. Ligand immobilization was performed at a flow rate of 10 μL/min. 50 μL each of 60 mM EDC solution (Cytiva) and 650 mM NHS solution (Cytiva) were mixed, and then reacted at a flow rate of 10 μL/min for 420 seconds. 150 μL of 0.2 μM human Glypican3 (R&D systems, catalog number: 2119-GP) solution which was prepared by diluting with 10 mM acetic acid solution (pH 5.0), was reacted at a flow rate of 10 μL/min for 420 seconds, and Glypican3 was immobilized on the CM3 sensor chip. After immobilization, 1.0 M ethanolamine aqueous solution (Cytiva) was allowed to react for 420 seconds at a flow rate of 10 μL/min for capping. A peptide lysate prepared to 10 mM in DMSO solution was diluted with running buffer to a final concentration of 10 μM peptide lysate. After that, 5 serial dilution series (100 nM, 50 nM, 25 nM, 10 nM, 5 nM) of peptide solutions were prepared. Using the above samples, peptide kinetics for Glypican3 was obtained by SPR measurement. […]
The obtained data by Method B-1, Method B-2, Method B-3, and Method B-4 were analyzed by follow. […]

[5] = target: Human Glypican3-Fc (ACRO Biosystems, GP3-H5258) (human) (UniProt P51654); assay: SPR Biacore T200, Method B-3: Glypican3-Fc captured on Protein A chip, single cycle kinetics
[6] = target: T2, Human Glypican3-Fc (ACRO Biosystems, GP3-H5258) (human, UniProt P51654 25-559); assay: as above
T2 construct: Bought Fc fusion, captured by anti-human IgG (Fc) antibody (Method B-2) or on a Protein A chip (Methods B-3, B-4); Supplier and catalogue number are printed only in Method B-2; B-3 and B-4 say only Glypican3-Fc / human Glypican3-Fc; not shown: Fc part of the bought fusion protein
Description: as §1, §2

Chain of Human Glypican3-Fc (ACRO Biosystems, GP3-H5258) (human) (P51654 25-559 limits assumed): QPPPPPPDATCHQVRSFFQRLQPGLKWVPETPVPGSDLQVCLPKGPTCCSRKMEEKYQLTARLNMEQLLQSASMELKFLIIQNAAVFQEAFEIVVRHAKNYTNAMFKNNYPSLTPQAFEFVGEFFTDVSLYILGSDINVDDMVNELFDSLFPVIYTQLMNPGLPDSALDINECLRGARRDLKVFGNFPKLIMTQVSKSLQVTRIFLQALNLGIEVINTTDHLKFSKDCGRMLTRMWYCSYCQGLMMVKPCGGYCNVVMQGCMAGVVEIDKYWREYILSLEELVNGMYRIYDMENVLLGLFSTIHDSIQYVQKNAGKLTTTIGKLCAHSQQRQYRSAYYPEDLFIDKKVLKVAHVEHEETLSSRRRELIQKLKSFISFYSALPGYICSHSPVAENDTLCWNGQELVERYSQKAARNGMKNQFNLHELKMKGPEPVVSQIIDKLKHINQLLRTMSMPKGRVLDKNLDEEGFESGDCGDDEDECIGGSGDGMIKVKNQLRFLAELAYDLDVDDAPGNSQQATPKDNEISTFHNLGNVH
T1 sequence (P51654 25-554): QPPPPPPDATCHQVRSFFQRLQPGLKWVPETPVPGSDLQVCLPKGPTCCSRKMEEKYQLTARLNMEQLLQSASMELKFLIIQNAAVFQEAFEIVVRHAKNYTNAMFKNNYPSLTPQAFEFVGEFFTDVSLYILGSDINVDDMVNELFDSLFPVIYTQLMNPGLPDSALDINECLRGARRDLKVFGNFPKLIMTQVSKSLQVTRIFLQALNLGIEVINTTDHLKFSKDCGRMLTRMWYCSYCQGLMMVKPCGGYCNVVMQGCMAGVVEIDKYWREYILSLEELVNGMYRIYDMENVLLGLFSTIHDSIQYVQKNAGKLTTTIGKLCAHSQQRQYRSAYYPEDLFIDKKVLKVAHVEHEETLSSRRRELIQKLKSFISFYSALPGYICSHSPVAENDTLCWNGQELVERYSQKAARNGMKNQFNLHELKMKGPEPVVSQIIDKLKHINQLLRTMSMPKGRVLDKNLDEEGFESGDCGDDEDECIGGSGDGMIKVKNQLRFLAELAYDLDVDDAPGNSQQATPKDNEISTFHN
T2 sequence (P51654 25-559 limits assumed): as the sequence (P51654 25-559 limits assumed) above

Molecule: CC[N+]1=C(/C=C/C=C/C=C2/N(CCCCCC(=O)NCCCC[C@H](NC(=O)CCOCCOCCOCCOCCOCCOCCOCCOCCOCCOCCNC(=O)CNC(C)=O)C(N)=O)c3ccc(S(=O)(=O)O)cc3C2(C)C)C(C)(C)c2cc(S(=O)(=O)[O-])ccc21 [C-M-64, 2-[(1E,3E)-5-[(2E)-1-(5-{[(5)-5-carbamoyl-5-[1-(2-acetamidoacetamido)-3,6,9,12,15,18,21,24,27,30-decaoxatritriacontan-33-amido]pentyl]carbamoyl}pentyl)-3,3-dimethyl-5-sulfo-2,3-dihydro-1H-indol-2-ylidene]penta-1,3-dien-1-yl]-1-ethyl-3,3-dimethyl-3H-indol-1-ium-5-sulfonate, reference compound]
- Kd [1]: < 1 nM

Molecule: CC[C@H](C)[C@@H]1NC(=O)[C@H](Cc2ccc(C(=O)O)cc2)NC(=O)[C@H](CCC(N)=O)N(C)C(=O)[C@H](CC(=O)O)NC(=O)[C@H]([C@@H](C)CC)N(C)C(=O)[C@H](CCCCNC(C)=O)N(C)C(=O)CSCC(C(=O)NCC(=O)NCCOCCOCCOCCOCCOCCOCCOCCOCCOCCOCCC(=O)N[C@@H](CCCCNC(=O)CCCC[C@@H]2SC[C@@H]3NC(=O)N[C@@H]32)C(N)=O)N(C)C(=O)[C@H](Cc2ccc(-c3ccccc3)nc2)NC(=O)CNC(=O)[C@H](Cc2ccc3ccncc3c2)N(C)C(=O)[C@H](Cc2ccc(O)cc2)NC(=O)[C@H]([C@@H](C)CC)NC1=O (some centres unmarked) [PLB-60] ({CH2CO}-[NMeK](Ac)[NMeI]D[NMeQ][Phe(4-COOH)]IIY[NMeAla(isoquinolin-7-yl)]G[3Pal(6-Ph)][ξNMeC]G[PEG10]K(Biotin)-NH2; thioether N-12)
- comparative staining of HepG2 by flow cytometry [2]: specific binding to both glypican expressing cells and SAPE
- comparative staining of Huh-7 by flow cytometry [3]: specific binding to both glypican expressing cells and SAPE

Molecule: CC[C@H](C)[C@@H]1NC(=O)[C@H]([C@@H](C)OC)NC(=O)[C@H](Cc2ccc(C(=O)O)cc2)NC(=O)[C@H](CCC(N)=O)N(C)C(=O)[C@H](CC(=O)O)NC(=O)[C@H](CCC(N)=O)N(C)C(=O)[C@H](CCC(N)=O)N(C)C(=O)CSC[C@@H](C(N)=O)N(C)C(=O)[C@H](Cc2ccc(-c3cnn(C)c3)cc2)NC(=O)CNC(=O)[C@H](Cc2ccc3ccccc3c2)N(C)C(=O)[C@H](Cc2ccc(C(=O)O)cc2)NC1=O [compound 18] ({CH2CO}-[NMeQ][NMeQ]D[NMeQ][Phe(4-COOH)]T(Me)I[Phe(4-COOH)][NMe2Nal]G[Phe(4-(1-Me-pyrazol-4-yl))][NMeC]-NH2; thioether N-12)
- Kd [4]: 1.8 nM

Second part, the molecule after the results:

- Kd [1]: 1.8 nM
Molecule: CC[C@H](C)[C@@H]1NC(=O)[C@H]([C@@H](C)OC)NC(=O)[C@H](Cc2ccc(C(=O)O)cc2)NC(=O)[C@H](CNC(=O)N2CCN(CC(=O)O)CC2)N(C)C(=O)[C@H](CC(=O)O)NC(=O)[C@H](CCOC)N(C)C(=O)[C@H](CCCCNC(=O)N2CCN(CC(=O)O)CC2)N(C)C(=O)CSC[C@@H](C(N)=O)N(C)C(=O)[C@H](Cc2ccc(-c3ccccc3)nc2)NC(=O)CNC(=O)[C@H](Cc2ccc3ccncc3c2)N(C)C(=O)[C@H](Cc2ccc(OCCN)cc2)NC1=O [compound 55]

- Kd [5]: 1 nM
Molecule: {CH2CO}-[MeDapCOpipzaa][MeHseMe]D[MeDapCOpipzaa][Phe(4-COOH)][TMe]I[AEF][NMeAla(isoquinolin-7-yl)]G[3Pal(6-Ph)][NMeC]-NH2 (thioether N-12) [macrocyclic peptide of SEQ ID NO: 54]

- Kd [6]: 1.04 nM
Molecule: {CH2CO}-[NMeK](Biotin‑PEG12c)[NMeI]D[NMeQ][Phe(4-COOH)]II[F4aao][NMeAla(isoquinolin-7-yl)]G[3Pal(6-Ph)][NMeC]-NH2 (thioether N-12) [macrocyclic peptide-biotin conjugate PLB-64 (SEQ ID NO: 76)]

- Kd [5]: 0.3 nM
Molecule: {CH2CO}-[MeDapCOpipzaa][MeHseMe]D[MeDapCOpipzaa][Phe(4-COOH)][TMe]I[AEF][NMe2Nal]G[3Pal(6-Ph)][NMeC]-NH2 (thioether N-12) [macrocyclic peptide of SEQ ID NO: 50]
